A word on the AUC(0-t): it is the area under the concentration-time curve up to a stated or last time point. A higher AUC(0-t) goes with more exposure. For orientation: MRT means the average time that molecules of a dose stay in the body. The term MRT last denotes the average time that molecules of a dose stay in the body. As a reminder, the half-life is the time needed for the level to fall by half in the phase considered. A higher half-life goes with slow loss. A word on the Cmax: it is the maximum level reached in the sampled fluid or tissue. By Tmax is commonly meant the time from dosing to the highest level.

Like-named read-outs stand apart in the source and are kept apart here.

Series [1] in a line: Pharmacokinetics of firocoxib in a single sow after IM injection (Example 1). Type of series: in vivo, swine. The conditions noted are these: 1.5 mg/kg IM; for AUC: im, 1.5 mg/kg. The text has this: The objective of this study was to characterize the pharmacokinetic profile and transmammary delivery of firocoxib in a single sow and her litter when administered via injection to provide analgesia to piglets via the milk prior to routine piglet processing procedures. One crossbred sow and her litter sourced from the MVS-Klitz Farm was used for this project. The sow was in good health, and had not received treatment with anti-inflammatory drugs by any route. The study sow was housed in a farrowing crate. Feed and water was provided ad libitum throughout the study period. No additional medications were provided. Study animals were identified using unique duplicate ear tags and/or tattoos.
There was one treatment group in this study (refer to Table 1). The sow was given firocoxib (20 mg/mL) on Study Day 0. Firocoxib was administered via injection five (+/−2) days post-farrow, at 1.5 mg/kg IM.
Blood (sodium heparin tubes) was collected from the sow via jugular venipuncture at the following time points after drug administration via injection to the sow: 0, 1, 2, 3, 4, 6, 8, 10, 12, 24, 36 and 48 hours. The piglets had blood collected via jugular venipuncture at the following timepoints following sow drug administration via injection:
Approximately 10 mL of blood was collected from the sow at each time point, and approximately 5 mL was collected from each piglet at each time point. Following blood collection at the 48 hour time point, the sow and piglets was euthanized and disposed of per study site procedures.
Samples were stored on ice after collection and before processing. Blood samples were centrifuged for 10 minutes at 1,500 g. Collected plasma was placed in duplicate cryovials with a single-use transfer pipette and frozen at −70° C. until analysis. Cryovials were labeled with the time point and collection date.
Plasma concentrations of firocoxib were measured with high-pressure liquid chromatography-tandem mass spectrometry (Shimadzu Prominence, Shimadzu Scientific Instruments, Columbia, Md., USA). Briefly, frozen samples or standards were thawed at room temperature and rigorously vortexed once completely thawed. A 200 μL plasma sample was added to 400 μL 5% Acetic Acid and the internal standard celecoxib (20 μg/mL). The entire diluted sample was added to a 3 mL solid phase extraction tubes (OASIS) which was conditioned prior with methanol (2 ml) and equilibrated with water (2 ml). The sample was then gravity filtered through the solid phase extraction tubes and subsequently washed with 1 ml 5% acetic acid, followed by 1 ml solution of 25% methanol/75% water. Using 2×0.75 mL acetonitrile, firocoxib was eluted into a glass tube and an additional internal standard piroxicam (10 ng/μL) was added. Samples were evaporated to dryness at 48° C. under a stream of nitrogen, reconstituted with […] 25% in water and pipetted into an injection vial for LC-MS/MS analysis with the injection volume set to 10 μL. The mobile phase consisted of acetonitrile and formic acid (0.1%) at a flow rate of 0.4 mL/min. The concentration of this mobile phase began at 85% formic acid (0.1%) from 0 to 0.5 minutes with a linear gradient to 50% formic acid (0.1%) at 2.5 minutes, which was maintained until 3 minutes, followed by a linear gradient to 85% formic acid (0.1%) at 4 minutes with a total run time of 5 minutes.
The standard curve of firocoxib concentration determined using porcine plasma was linear from 0.020 to 5.0 μg/mL and was accepted when the correlation coefficient exceeded 0.99 and measured values were within 15% of the actual values. The lower limit of quantification, defined as the lowest concentration on a linear standard curve with predicted concentrations within 15% of the actual concentration, was 0.020 μg/mL.
Firocoxib time concentration data was analyzed using a commercially available computer software program (Kinetica, Thermo Scientific).

Series [2] can be described thus: Preweaning piglet deaths per sow treatment group. The class given is in vivo, swine. On the procedure:
Protocols involved intramuscular injection of Firocoxib to lactating sows at either 0.5, 1.0, 1.5 or 2 mg/kg, and analysis in sows and select piglets at 21 days post treatment. Pregnant Yorkshire×Landrace sows (mean±SEM bodyweight, 250.3±7.61 kg) that were approximately 1 week before farrowing were sourced from a commercial swine farm. Each sow was examined by a veterinarian to confirm that she was healthy and pregnant. A unique numerical ear tag (Allflex Global Ear Tags, Allflex USA, Inc., DFW Airport, TX) was placed in the right ear of each sow for identification. The sows were housed in a commercial swine operation at MVS (West Point, Nebr.) in accordance with the recommendations in the Guide for the Care and Use of Agricultural Animals in Agricultural Use and Research and Teaching (Guide for the Care and Use of Agricultural Animals in Agricultural Research and Teaching, 2010). Sows were placed in Quad- or Euro-style farrowing stalls (Thorp Equipment, Thorp, Wis.), depending on availability. Regardless of stall type, each sow was housed in a farrowing crate measuring 0.6 m×2.1 m. Quad and Euro crates had piglet creep areas of 7.0 m^2 and 6.4 m^2, respectively. After farrowing, a heat lamp was provided on one side of the creep area for the piglets in each crate. All sows were fed a diet that met or exceeded National Research Council (NRC, 2012) nutrient requirements and water was provided ad libitum. Each litter provided at least six male and three female piglets for sampling with the exception of one sow that had 5 males and 4 females in the litter, and one sow that had 3 males and 6 females in the litter. Piglets were clinically examined and weighed on Study Day 0 prior to dosing. Cross fostering of the litters was permitted. Bodyweights were used to randomly assign sows to 1 of 4 treatment groups (n=4 sows/group) as detailed in Table 3.
A sample size of 4 sows was selected to describe the pharmacokinetics of firocoxib. For the comparison of plasma cortisol concentrations and average daily gain in bodyweight (ADG), a sample size of 36 piglets/treatment group was calculated to provide Statistical Power of 0.8 assuming an alpha of 0.05, sigma of 0.54 and delta of 0.20. At the time of study commencement (T0), sows received a single dose of firocoxib (Equioxx Injection, Merial, Duluth, Ga.) (Lot number 4VP07, Expiration Date November 2017) administered at either 0.5 mg/kg, 1.0 mg/kg, 1.5 mg/kg, or 2.0 mg/kg by IM injection into the right lateral neck using an 18-gauge, 1.5-inch needle attached to a 20-mL syringe (Table 3). In cases where the calculated dose volume exceeded 20-mL, the remaining volume was administered via IM injection in the left lateral neck muscle.

[3] abbreviates: female, crossbred, swine, plasma.

Regarding `CC1(C)OC(=O)C(OCC2CC2)=C1c1ccc(S(C)(=O)=O)cc1` [firocoxib], in series [1], the “% AUCextra” value worked out at 33.02%, the AUMCextra is 322.22 μg/mL * (h)^2, the AUMClast is 155.18 μg/mL * (h)^2 and the AUMtot is 477.39 μg/mL * (h)^2. In addition, in series [1], the Clearance is on record as 32.45 L/h, the Vss was 1390.95 L and the Vz was 1285.61 L. In series [1] (female, crossbred, pig, plasma), this molecule had an AUC(0-t) of 7460 ng·h/mL, an MRT of 42.9 h, an MRT last of 20.8 h and a half-life of 27.5 h. Moreover, in series [1] (female, crossbred, pig, plasma, read-out: AUCextra), the AUC turned out to be 3680 ng·h/mL. Besides, in series [1] (female, crossbred, pig, plasma, read-out: AUCtot), the AUC stood at 11100 ng·h/mL. In series [1] (setting [3]), the Cmax is 287 ng/mL and the Tmax was 6 h. Moreover, the “Preweaning piglet deaths, Total” value in series [2] (sow treatment group #1, 0.5 mg/kg) is recorded as 2. Besides, the “Preweaning piglet deaths, Total” value in series [2] (sow treatment group #2, 1.0 mg/kg) turned out to be 3. In addition, the “Preweaning piglet deaths, Total” value in series [2] (sow treatment group #3, 1.5 mg/kg) is listed as 3. In series [2] (sow treatment group #4, 2.0 mg/kg), the “Preweaning piglet deaths, Total” value came out at 0.

(Values after patent publication US10434083B2, “Transmammary delivery of cyclooxygenase-2 inhibitors for analgesia in neonates” (Iowa State University Research Foundation, Inc., priority 2018, dated 2019).)
